Measured values: ChEMBL document CHEMBL3885861, “Open TG-GATES”

Organism: Rattus norvegicus
Test: Open TG-GATES - Regimen: Single
Format: toxicity, organism-based, Sprague-Dawley
Parameters: regimen Single, gender Male, age 6 weeks
Conditions: in vivo, po, 30 mg/kg, route gavage, dose level High; for APTT / Bas / Eos / Fbg / Hb / Ht / Lym / MCH / MCHC / Mono / Neu / Plat / RBC / Ret / WBC: tissue Blood; for KIDNEY_L / KIDNEY_R / KIDNEY_TOTAL: tissue Kidney; for LIVER: tissue Liver; for ALP / ALT / AST / BUN / CRE / Ca / Cl / DBIL / GLC / IP / K / LDH / Na / PL / RALB / TBIL / TC / TG / TP / gamma-GTP: tissue Plasma

O=C(CCCN1CCC(O)(c2ccc(Cl)cc2)CC1)c1ccc(F)cc1 [HALOPERIDOL]
TERMINAL_BW (3 h): 205 g | APTT (3 h): 17.2 s | Bas (3 h): 0% | Eos (3 h): 0.2% | Fbg (3 h): 207.6 mg/dL | Hb (3 h): 12.8 g/dL | Ht (3 h): 38.4% | Lym (3 h): 70.4% | MCH (3 h): 21.5 pg | MCHC (3 h): 33.3% | Mono (3 h): 6% | Neu (3 h): 23.4% | Plat (3 h): 97 x10_4/uL | RBC (3 h): 593.6 x10_4/ul | Ret (3 h): 8.9% | WBC (3 h): 57.7 x10_2/uL | KIDNEY_L (3 h): 0.9 g | KIDNEY_R (3 h): 0.9 g | KIDNEY_TOTAL (3 h): 1.9 g | LIVER (3 h): 9.5 g | ALP (3 h): 676.8 IU/L | ALT (3 h): 31.4 IU/L | AST (3 h): 52 IU/L | BUN (3 h): 12.2 mg/dL | CRE (3 h): 0.5 mg/dL | Ca (3 h): 10.7 mg/dL | Cl (3 h): 108.8 meq/L | DBIL (3 h): 0.018 mg/dL | GLC (3 h): 222.8 mg/dL | IP (3 h): 10.5 mg/dL | K (3 h): 4.4 meq/L | LDH (3 h): 166.8 IU/L | Na (3 h): 140.8 meq/L | PL (3 h): 157.6 mg/dL | RALB (3 h): 3.7 g/dL | TBIL (3 h): 0.3 mg/dL | TC (3 h): 92.2 mg/dL | TG (3 h): 34.6 mg/dL | TP (3 h): 5.6 g/dL | gamma-GTP (3 h): 1.4 IU/L | TERMINAL_BW (6 h): 194.4 g | APTT (6 h): 17.2 s | Bas (6 h): 0% | Eos (6 h): 0.4% | Fbg (6 h): 198.5 mg/dL | Hb (6 h): 13.9 g/dL | Ht (6 h): 41.3% | Lym (6 h): 72.6% | MCH (6 h): 21.4 pg | MCHC (6 h): 33.7% | Mono (6 h): 4.4% | Neu (6 h): 22.6% | Plat (6 h): 110.6 x10_4/uL | RBC (6 h): 647.2 x10_4/ul | Ret (6 h): 9.3% | WBC (6 h): 75.5 x10_2/uL | KIDNEY_L (6 h): 0.9 g | KIDNEY_R (6 h): 0.9 g | KIDNEY_TOTAL (6 h): 1.8 g | LIVER (6 h): 8.9 g | ALP (6 h): 742.6 IU/L | ALT (6 h): 30.6 IU/L | AST (6 h): 59.8 IU/L | BUN (6 h): 9.2 mg/dL | CRE (6 h): 0.5 mg/dL | Ca (6 h): 10.1 mg/dL | Cl (6 h): 108.2 meq/L | DBIL (6 h): 0.036 mg/dL | GLC (6 h): 215.6 mg/dL | IP (6 h): 10.1 mg/dL | K (6 h): 4.6 meq/L | LDH (6 h): 179.8 IU/L | Na (6 h): 140 meq/L | PL (6 h): 133.6 mg/dL | RALB (6 h): 3.6 g/dL | TBIL (6 h): 0.3 mg/dL | TC (6 h): 77.8 mg/dL | TG (6 h): 20 mg/dL | TP (6 h): 5.5 g/dL | gamma-GTP (6 h): 1.2 IU/L | TERMINAL_BW (9 h): 194.2 g | APTT (9 h): 16.9 s | Bas (9 h): 0% | Eos (9 h): 1.4% | Fbg (9 h): 216 mg/dL | Hb (9 h): 13.6 g/dL | Ht (9 h): 40.7% | Lym (9 h): 69% | MCH (9 h): 21.9 pg | MCHC (9 h): 33.4% | Mono (9 h): 5.6% | Neu (9 h): 24% | Plat (9 h): 104 x10_4/uL | RBC (9 h): 623 x10_4/ul | Ret (9 h): 8.6% | WBC (9 h): 59.3 x10_2/uL | KIDNEY_L (9 h): 0.9 g | KIDNEY_R (9 h): 0.9 g | KIDNEY_TOTAL (9 h): 1.8 g | LIVER (9 h): 8.3 g | ALP (9 h): 898.8 IU/L | ALT (9 h): 26.8 IU/L | AST (9 h): 53.2 IU/L | BUN (9 h): 10.8 mg/dL | CRE (9 h): 0.5 mg/dL | Ca (9 h): 9.9 mg/dL | Cl (9 h): 108.8 meq/L | DBIL (9 h): 0.012 mg/dL | GLC (9 h): 201.2 mg/dL | IP (9 h): 10.8 mg/dL | K (9 h): 4.8 meq/L | LDH (9 h): 180.8 IU/L | Na (9 h): 140.6 meq/L | PL (9 h): 137.2 mg/dL | RALB (9 h): 3.9 g/dL | TBIL (9 h): 0.3 mg/dL | TC (9 h): 75.8 mg/dL | TG (9 h): 21.4 mg/dL | TP (9 h): 5.6 g/dL | gamma-GTP (9 h): 1.2 IU/L | TERMINAL_BW (24 h): 194.5 g | APTT (24 h): 15.2 s | Bas (24 h): 0% | Eos (24 h): 0.6% | Fbg (24 h): 200.2 mg/dL | Hb (24 h): 14.5 g/dL | Ht (24 h): 43.1% | Lym (24 h): 80.8% | MCH (24 h): 21.4 pg | MCHC (24 h): 33.7% | Mono (24 h): 5.8% | Neu (24 h): 12.8% | Plat (24 h): 118.2 x10_4/uL | RBC (24 h): 680 x10_4/ul | Ret (24 h): 7.7% | WBC (24 h): 59.7 x10_2/uL | KIDNEY_L (24 h): 0.9 g | KIDNEY_R (24 h): 0.9 g | KIDNEY_TOTAL (24 h): 1.8 g | LIVER (24 h): 8.9 g | ALP (24 h): 744.8 IU/L | ALT (24 h): 30.2 IU/L | AST (24 h): 67.8 IU/L | BUN (24 h): 28.6 mg/dL | CRE (24 h): 0.5 mg/dL | Ca (24 h): 11 mg/dL | Cl (24 h): 105 meq/L | DBIL (24 h): 0.044 mg/dL | GLC (24 h): 181 mg/dL | IP (24 h): 9.7 mg/dL | K (24 h): 5.3 meq/L | LDH (24 h): 216.4 IU/L | Na (24 h): 140 meq/L | PL (24 h): 142.8 mg/dL | RALB (24 h): 4.1 g/dL | TBIL (24 h): 0.4 mg/dL | TC (24 h): 77 mg/dL | TG (24 h): 95 mg/dL | TP (24 h): 6.1 g/dL | gamma-GTP (24 h): 1 IU/L
